Assay results from PubChem BioAssay (NCI).
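Compound exposure: 48 hours, 5 concentrations, 96-well plates. TGI marks complete inhibition of growth.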

What was measured:
Test in all cases: inhibition of tumour cell growth, NCI panel, 48 h
UACC-257 melanoma = test system: UACC-257 melanoma
SF-539 CNS = test system: SF-539 CNS
RPMI-8226 leukemia = test system: RPMI-8226 leukemia
OVCAR-4 ovarian = test system: OVCAR-4 ovarian
HCT-15 colon = test system: HCT-15 colon
ACHN renal = test system: ACHN renal
K-562 leukemia = test system: K-562 leukemia
786-0 renal = test system: 786-0 renal
COLO 205 colon = test system: COLO 205 colon
HCC-2998 colon = test system: HCC-2998 colon
U251 CNS = test system: U251 CNS
SF-268 CNS = test system: SF-268 CNS
CCRF-CEM leukemia = test system: CCRF-CEM leukemia
NCI/ADR-RES ovarian = test system: NCI/ADR-RES ovarian
MCF7 breast = test system: MCF7 breast

Measured: TGI

CC1(C)OCN(c2ccc(N3CCOCC3)cc2)Cn2c1nc1ccccc12
> 100 µM: UACC-257 melanoma | SF-539 CNS | OVCAR-4 ovarian | HCT-15 colon | ACHN renal | K-562 leukemia | 786-0 renal | COLO 205 colon | HCC-2998 colon | U251 CNS | SF-268 CNS | CCRF-CEM leukemia
86.6 µM: RPMI-8226 leukemia

CC(C)(C)C1=C(Br)C(C(C)(C)C)OP1(=O)O (centres undefined)
> 100 µM: UACC-257 melanoma | SF-539 CNS | OVCAR-4 ovarian | HCT-15 colon | ACHN renal | K-562 leukemia | 786-0 renal | NCI/ADR-RES ovarian | COLO 205 colon | HCC-2998 colon | U251 CNS | SF-268 CNS | MCF7 breast

C#CCn1c(=O)c(I)cn(/C(=C/C(=O)OCC)C(=O)OCC)c1=O
2.94 µM: COLO 205 colon
6.16 µM: MCF7 breast
3.27 µM: ACHN renal
12.3 µM: SF-539 CNS
35.1 µM: SF-268 CNS
3.09 µM: 786-0 renal
2.33 µM: RPMI-8226 leukemia
32.1 µM: U251 CNS
> 57.7 µM: CCRF-CEM leukemia
> 84 µM: NCI/ADR-RES ovarian
21.4 µM: OVCAR-4 ovarian
8.11 µM: UACC-257 melanoma
8.03 µM: HCT-15 colon

CC1(c2cccc(C3CC4(CCC3=O)OCCCCO4)c2)OCCO1 (centres undefined)
> 100 µM: UACC-257 melanoma | SF-539 CNS | RPMI-8226 leukemia | OVCAR-4 ovarian | HCT-15 colon | ACHN renal | K-562 leukemia | 786-0 renal | COLO 205 colon | HCC-2998 colon | U251 CNS | SF-268 CNS | CCRF-CEM leukemia

CC(=O)SCCC(NC(=S)Nc1ccccc1)P(=O)(Oc1ccccc1)Oc1ccccc1 (centres undefined)
> 100 µM: UACC-257 melanoma | SF-539 CNS | OVCAR-4 ovarian | HCT-15 colon | ACHN renal | K-562 leukemia | 786-0 renal | NCI/ADR-RES ovarian | COLO 205 colon | HCC-2998 colon | U251 CNS | SF-268 CNS | CCRF-CEM leukemia | MCF7 breast

CCOC1C(Br)Cn2c(=O)c3cc4ccccc4cc3c(=O)n2C1C (centres undefined)
> 100 µM: UACC-257 melanoma | SF-539 CNS | RPMI-8226 leukemia | OVCAR-4 ovarian | HCT-15 colon | ACHN renal | K-562 leukemia | 786-0 renal | COLO 205 colon | HCC-2998 colon | U251 CNS | SF-268 CNS | CCRF-CEM leukemia

O=S(=O)(O)c1ccc(N=Nc2ccc3c(S(=O)(=O)O)cccc3c2O)c2ccccc12
> 100 µM: UACC-257 melanoma | RPMI-8226 leukemia | OVCAR-4 ovarian | HCT-15 colon | ACHN renal | 786-0 renal | NCI/ADR-RES ovarian | COLO 205 colon | U251 CNS | SF-268 CNS | MCF7 breast

O=C1CS(=O)(=O)C(c2cccc(Oc3ccccc3)c2)N1c1ccc(Cl)cc1 (centres undefined)
60.5 µM: ACHN renal
36.5 µM: 786-0 renal
20.8 µM: HCC-2998 colon
44.3 µM: UACC-257 melanoma
39.9 µM: SF-539 CNS
31.9 µM: MCF7 breast
35.5 µM: COLO 205 colon
56.1 µM: U251 CNS
> 100 µM: OVCAR-4 ovarian | HCT-15 colon | NCI/ADR-RES ovarian | SF-268 CNS | CCRF-CEM leukemia
63 µM: K-562 leukemia

COC(=O)[C@@H]1C[C@H]2OC(=O)CC[C@]2(C)O[C@H]1[C@H]1O[C@@](C)(O)CCC[C@H]1C
> 50 µM: UACC-257 melanoma | SF-539 CNS | RPMI-8226 leukemia | OVCAR-4 ovarian | HCT-15 colon | ACHN renal | K-562 leukemia | 786-0 renal | COLO 205 colon | HCC-2998 colon | U251 CNS | SF-268 CNS | MCF7 breast
39.3 µM: CCRF-CEM leukemia

CCN1C[C@]2(C)CC[C@H](O)C34C1C(C[C@@H]32)[C@@]1(O)CC[C@H]2C[C@@H]4[C@@H]1[C@H]2O
> 100 µM: UACC-257 melanoma | SF-539 CNS | RPMI-8226 leukemia | OVCAR-4 ovarian | HCT-15 colon | ACHN renal | 786-0 renal | COLO 205 colon | U251 CNS | SF-268 CNS | CCRF-CEM leukemia

O=C(CSc1nnc(-c2ccccn2)s1)N/N=C/c1ccccc1
> 100 µM: UACC-257 melanoma | SF-539 CNS | OVCAR-4 ovarian | HCT-15 colon | ACHN renal | K-562 leukemia | 786-0 renal | NCI/ADR-RES ovarian | COLO 205 colon | U251 CNS | SF-268 CNS | CCRF-CEM leukemia | MCF7 breast

COc1cc(C=O)c(-c2c(C=O)ccc3c2OCO3)c(OC)c1OC
> 100 µM: UACC-257 melanoma | SF-539 CNS | RPMI-8226 leukemia | OVCAR-4 ovarian | HCT-15 colon | ACHN renal | K-562 leukemia | 786-0 renal | COLO 205 colon | HCC-2998 colon | U251 CNS | SF-268 CNS | CCRF-CEM leukemia

COc1ccc(-c2c(C(C)=O)c(-c3ccccc3)n(C3OC(CO)C(O)C(O)C3O)c(=S)c2C#N)cc1 (centres undefined)
> 100 µM: UACC-257 melanoma | SF-539 CNS | OVCAR-4 ovarian | HCT-15 colon | ACHN renal | K-562 leukemia | 786-0 renal | NCI/ADR-RES ovarian | COLO 205 colon | HCC-2998 colon | U251 CNS | SF-268 CNS | CCRF-CEM leukemia | MCF7 breast

Cc1cccc(Cl)c1NCC(O)CN1CCN(C)CC1 (centres undefined)
> 100 µM: UACC-257 melanoma | OVCAR-4 ovarian | HCT-15 colon | ACHN renal | K-562 leukemia | 786-0 renal | NCI/ADR-RES ovarian | HCC-2998 colon | U251 CNS | SF-268 CNS | CCRF-CEM leukemia

O=C(NN1C(=O)C(Cl)C1c1ccc(Cl)cc1)c1c(Cl)c(Cl)c(Cl)c(Cl)c1-c1nc2ccccc2[nH]1 (centres undefined)
36.2 µM: COLO 205 colon
34.4 µM: MCF7 breast
47.4 µM: 786-0 renal
54.4 µM: HCT-15 colon
> 100 µM: UACC-257 melanoma | SF-539 CNS | K-562 leukemia | NCI/ADR-RES ovarian | SF-268 CNS | CCRF-CEM leukemia
30.9 µM: HCC-2998 colon
43.5 µM: ACHN renal

Cc1ccc2c(ccc(/C=C/c3ccc(O)c4ncccc34)[n+]2C)c1
22 µM: SF-268 CNS
83.4 µM: K-562 leukemia
70.2 µM: RPMI-8226 leukemia
20.7 µM: HCC-2998 colon
39.9 µM: COLO 205 colon
23.1 µM: SF-539 CNS
24.2 µM: UACC-257 melanoma
> 70 µM: CCRF-CEM leukemia
33.1 µM: ACHN renal
26.8 µM: U251 CNS
33.6 µM: OVCAR-4 ovarian
26.7 µM: 786-0 renal
> 100 µM: HCT-15 colon | NCI/ADR-RES ovarian

C=C(C)C1CCC(C(=O)O)CC1 (centres undefined)
> 100 µM: UACC-257 melanoma | SF-539 CNS | RPMI-8226 leukemia | HCT-15 colon | ACHN renal | K-562 leukemia | 786-0 renal | COLO 205 colon | HCC-2998 colon | U251 CNS | SF-268 CNS | CCRF-CEM leukemia | MCF7 breast
